The text below walks through data of US9420793B2, “Antiparasitic compounds” (Avista Pharma Solutions, priority 2015, dated 2016).

In one test the test system is R. sanguineus. Kind of test: In vitro tick contact assay, comparison with standards.
The next test concerns Ctenocephalides felis. The note with it: 24 h; fleas.
Another test relates to Aedes aegypti. Nature of the test: In vitro evaluation of ingestion activity against mosquitoes. The note with it: at 20 hours, compound in bovine blood, read-out: concentration at which active, mosquito ingestion. The procedure: In Vitro Evaluation of Ingestion Activity Against Mosquitoes (Aedes aegypti)
A solution of test compounds is added to bovine blood contained in a feeding chamber to reach the desired final concentration. Blood spiked with DMSO is prepared to serve as control. Adult female mosquitoes are introduced at the bottom of the chamber and allowed to feed on blood mixtures containing DMSO or test compounds for 30 minutes. Fully engorged mosquitoes are sorted into clean chambers after the blood meal and monitored for survival over 3 days. Replicates containing 10 mosquitoes are performed with each test compound concentration and results calculated as % mortality at specific time points.

The subject of test [1] is Dirofilaria immitis microfilariae. Kind of test: Dirofilaria immitis microfilariae motility assay. The note with it: 72 h, read-out: concentration at which active, microfilariae motility.

Procedure for Ctenocephalides felis: In Vitro Evaluation of Ingestion Activity Against Fleas (Ctenocephalides Felis)
For flea ingestion tests, an aliquot of each compound stock was added to organic bovine blood contained in an artificial feeding container, with a final DMSO concentration of 0.5%. Ten newly emerged unfed fleas, Ctenocephalides felis, from a laboratory colony, 0-7 days old, were aspirated into a chamber and exposed to the appropriate feeding container and held in a controlled environment at 35° C. Fleas were evaluated for % mortality at 24, 48, and 72 hours post infestation. Fleas showing normal movement and/or jumping ability were considered viable and those showing no movement after tapping the vials were scored as dead. The compound+blood mixture was replaced every 24 hours.
Procedure for R. sanguineus: A solution of the test compounds was used to coat the inner wall of glass vials and to treat two filter papers. Once dried, one filter paper was placed in the cap of the vial and the other in the bottom of the vial. Each treated vial was infested with 10 ticks. Contact of the ticks with residues was induced by holding the vials in a controlled environment and assessment was performed at 12, 24 and 48 hours after application in comparison with untreated glass vials and solvent-treated glass vials. Compounds were tested in duplicate and two separate trials (n=4).

As to `CS(=O)(=O)CC(=O)N1CC2(C1)OCc1cc(C3=NO[C@@](c4cc(Cl)c(F)c(Cl)c4)(C(F)(F)F)C3)ccc12` (racemic) [(+/−) Sarolaner, Sarolaner], the entries for the “R. sanguineus Contact EC50” value in the test on R. sanguineus (24 h) and in the test on R. sanguineus (48 h) were 37.8 ± 12.2 ppm and 12.7 ± 0.1 ppm, respectively. Also, the “Ingestion EC50” value with Ctenocephalides felis was found to be 1.23 ± 0.11 ppm. As for `O=C(CCC(F)(F)F)N1CC2(C1)OCc1cc(C3=NSC(c4cc(Cl)c(F)c(Cl)c4)(C(F)(F)F)C3)ccc12` (stereo not shown) [Compound 10, 1-[6-[5-(3,5-dichloro-4-fluoro-phenyl)-5-(trifluoromethyl)-4H-isothiazol-3-yl]spiro[1H-isobenzofuran-3,3′-azetidine]-1′-yl]-4,4,4-trifluoro-butan-1-one], the minimal effective concentration in the test on Aedes aegypti is less than 1 µg/mL. As to `O=C(c1ccc(N2CCOCC2)cc1)N1CC2(C1)OCc1cc(C3=NSC(c4cc(Cl)c(F)c(Cl)c4)(C(F)(F)F)C3)ccc12` (stereo not shown) [Compound 13, [6-[5-(3,5-dichloro-4-fluoro-phenyl)-5-(trifluoromethyl)-4H-isothiazol-3-yl]spiro[1H-isobenzofuran-3,3′-azetidine]-1′-yl]-(4-morpholinophenyl)methanone], in test [1], the minimal effective concentration was less than 10 µM. As to `CCNC(=O)N1CC2(C1)OCc1cc(C3=NSC(c4cc(Cl)c(F)c(Cl)c4)(C(F)(F)F)C3)ccc12` (stereo not shown) [Compound 16, 6-[5-(3,5-dichloro-4-fluoro-phenyl)-5-(trifluoromethyl)-4H-isothiazol-3-yl]-N-ethyl-spiro[1H-isobenzofuran-3,3′-azetidine]-1′-carboxamide], the minimal effective concentration was less than 1 µg/mL in the test with Aedes aegypti and less than 10 µM in test [1]. For `O=C(Nc1ccccc1)N1CC2(C1)OCc1cc(C3=NSC(c4cc(Cl)c(F)c(Cl)c4)(C(F)(F)F)C3)ccc12` (stereo not shown) [Compound 17, 6-[5-(3,5-dichloro-4-fluoro-phenyl)-5-(trifluoromethyl)-4H-isothiazol-3-yl]-N-phenyl-spiro[1H-isobenzofuran-3,3′-azetidine]-1′-carboxamide], in that order: less than 1 µg/mL and less than 10 µM. For `O=C(C1CCOCC1)N1CC2(C1)OCc1cc(C3=NSC(c4cc(Cl)c(F)c(Cl)c4)(C(F)(F)F)C3)ccc12` (stereo not shown) [Compound 19, [6-[5-(3,5-dichloro-4-fluoro-phenyl)-5-(trifluoromethyl)-4H-isothiazol-3-yl]spiro[1H-isobenzofuran-3,3′-azetidine]-1′-yl]-tetrahydropyran-4-yl-methanone], the minimal effective concentration in the test with Aedes aegypti is less than 1 µg/mL; in test [1] it was less than 10 µM. For `CCCCN1CC2(C1)OCc1cc(C3=NSC(c4cc(Cl)c(F)c(Cl)c4)(C(F)(F)F)C3)ccc12` (stereo not shown) [Compound 20, 1′-butyl-6-[5-(3,5-dichloro-4-fluoro-phenyl)-5-(trifluoromethyl)-4H-isothiazol-3-yl]spiro[1H-isobenzofuran-3,3′-azetidine]], in that order: less than 1 µg/mL and less than 10 µM.

As for `CC(C)(C)CCN1CC2(C1)OCc1cc(C3=NSC(c4cc(Cl)c(F)c(Cl)c4)(C(F)(F)F)C3)ccc12` (stereo not shown) [Compound 21, 6-[5-(3,5-dichloro-4-fluoro-phenyl)-5-(trifluoromethyl)-4H-isothiazol-3-yl]-1′-(3,3-dimethylbutyl)spiro[1H-isobenzofuran-3,3′-azetidine]], the minimal effective concentration in test [1] was less than 10 µM. The same measure, in the same setting: in the case of `COCC(=O)N1CC2(C1)OCc1cc(C3=NSC(c4cc(Cl)c(F)c(Cl)c4)(C(F)(F)F)C3)ccc12` (stereo not shown) [Compound 22, 1-[6-[5-(3,5-dichloro-4-fluoro-phenyl)-5-(trifluoromethyl)-4H-isothiazol-3-yl]spiro[1H-isobenzofuran-3,3′-azetidine]-1′-yl]-2-methoxy-ethanone] it was less than 10 µM; in that of `CC(C)OCC(=O)N1CC2(C1)OCc1cc(C3=NSC(c4cc(Cl)c(F)c(Cl)c4)(C(F)(F)F)C3)ccc12` (stereo not shown) [Compound 23, 1-[6-[5-(3,5-dichloro-4-fluoro-phenyl)-5-(trifluoromethyl)-4H-isothiazol-3-yl]spiro[1H-isobenzofuran-3,3′-azetidine]-1′-yl]-2-isopropoxy-ethanone], less than 10 µM. In the case of `CCOCC(=O)N1CC2(C1)OCc1cc(C3=NSC(c4cc(Cl)c(F)c(Cl)c4)(C(F)(F)F)C3)ccc12` (stereo not shown) [Compound 24, 1-[6-[5-(3,5-dichloro-4-fluoro-phenyl)-5-(trifluoromethyl)-4H-isothiazol-3-yl]spiro[1H-isobenzofuran-3,3′-azetidine]-1′-yl]-2-ethoxy-ethanone], in test [1], the minimal effective concentration was less than 10 µM. Same read-out and setting: in the case of `CC(C)C(=O)N1CC2(C1)OCc1cc(C3=NSC(c4cc(Cl)c(F)c(Cl)c4)(C(F)(F)F)C3)ccc12` (stereo not shown) [Compound 25, 1-[6-[5-(3,5-dichloro-4-fluoro-phenyl)-5-(trifluoromethyl)-4H-isothiazol-3-yl]spiro[1H-isobenzofuran-3,3′-azetidine]-1′-yl]-2-methyl-propan-1-one] it was less than 10 µM; in that of `CCC(=O)N1CC2(C1)OCc1cc(C3=NSC(c4cc(Cl)c(F)c(Cl)c4)(C(F)(F)F)C3)ccc12` (stereo not shown) [Compound 26, 1-[6-[5-(3,5-dichloro-4-fluoro-phenyl)-5-(trifluoromethyl)-4H-isothiazol-3-yl]spiro[1H-isobenzofuran-3,3′-azetidine]-1′-yl]propan-1-one], less than 10 µM. On the same count and under the same terms, in the case of `CC(=O)N1CC2(C1)OCc1cc(C3=NSC(c4cc(Cl)c(F)c(Cl)c4)(C(F)(F)F)C3)ccc12` (stereo not shown) [Compound 27, 1-[6-[5-(3,5-dichloro-4-fluoro-phenyl)-5-(trifluoromethyl)-4H-isothiazol-3-yl]spiro[1H-isobenzofuran-3,3′-azetidine]-1′-yl]ethanone] it was less than 10 µM. For the molecule `N#CCC(=O)N1CC2(C1)OCc1cc(C3=NSC(c4cc(Cl)c(F)c(Cl)c4)(C(F)(F)F)C3)ccc12` (stereo not shown) [Compound 29, 3-[6-[5-(3,5-dichloro-4-fluoro-phenyl)-5-(trifluoromethyl)-4H-isothiazol-3-yl]spiro[1H-isobenzofuran-3,3′-azetidine]-1′-yl]-3-oxo-propanenitrile], the minimal effective concentration with Aedes aegypti was less than 1 µg/mL; in test [1], less than 10 µM. For `O=C(N1CC2(C1)OCc1cc(C3=NSC(c4cc(Cl)c(F)c(Cl)c4)(C(F)(F)F)C3)ccc12)C(F)(F)C(F)(F)F` (stereo not shown) [Compound 30, 1-[6-[5-(3,5-dichloro-4-fluoro-phenyl)-5-(trifluoromethyl)-4H-isothiazol-3-yl]spiro[1H-isobenzofuran-3,3′-azetidine]-1′-yl]-2,2,3,3,3-pentafluoro-propan-1-one] the same measures were less than 1 µg/mL and less than 10 µM. Turning to `CC(F)(F)C(=O)N1CC2(C1)OCc1cc(C3=NSC(c4cc(Cl)c(F)c(Cl)c4)(C(F)(F)F)C3)ccc12` (stereo not shown) [Compound 31, 1-[6-[5-(3,5-dichloro-4-fluoro-phenyl)-5-(trifluoromethyl)-4H-isothiazol-3-yl]spiro[1H-isobenzofuran-3,3′-azetidine]-1′-yl]-2,2-difluoro-propan-1-one], the minimal effective concentration in test [1] is less than 10 µM. For the molecule `CCCCC(=O)N1CC2(C1)OCc1cc(C3=NSC(c4cc(Cl)c(F)c(Cl)c4)(C(F)(F)F)C3)ccc12` (stereo not shown) [Compound 35, 1-[6-[5-(3,5-dichloro-4-fluoro-phenyl)-5-(trifluoromethyl)-4H-isothiazol-3-yl]spiro[1H-isobenzofuran-3,3′-azetidine]-1′-yl]pentan-1-one], the minimal effective concentration in the test with Aedes aegypti was less than 1 µg/mL; in test [1], less than 10 µM. For the molecule `CCCCCC(=O)N1CC2(C1)OCc1cc(C3=NSC(c4cc(Cl)c(F)c(Cl)c4)(C(F)(F)F)C3)ccc12` (stereo not shown) [Compound 36, 1-[6-[5-(3,5-dichloro-4-fluoro-phenyl)-5-(trifluoromethyl)-4H-isothiazol-3-yl]spiro[1H-isobenzofuran-3,3′-azetidine]-1′-yl]hexan-1-one], the minimal effective concentration in test [1] was less than 10 µM.

In the case of `Fc1c(Cl)cc(C2(C(F)(F)F)CC(c3ccc4c(c3)COC43CN(c4ncccn4)C3)=NS2)cc1Cl` (stereo not shown) [Compound 40, 6-[5-(3,5-dichloro-4-fluoro-phenyl)-5-(trifluoromethyl)-4H-isothiazol-3-yl]-1′-pyrimidin-2-yl-spiro[1H-isobenzofuran-3,3′-azetidine]], the minimal effective concentration in test [1] was less than 10 µM. `CNC(=O)N1CC2(C1)OCc1cc(C3=NSC(c4cc(Cl)c(F)c(Cl)c4)(C(F)(F)F)C3)ccc12` (stereo not shown) [Compound 41, 6-[5-(3,5-dichloro-4-fluoro-phenyl)-5-(trifluoromethyl)-4H-isothiazol-3-yl]-N-methyl-spiro[1H-isobenzofuran-3,3′-azetidine]-1′-carboxamide]: the minimal effective concentration in the test with Aedes aegypti was less than 1 µg/mL; in test [1], less than 10 µM.
